This is an account of results in patent US20220363686A1 (AiCuris GmbH & Co. KG, priority 2018, published 2022).

One data set relates to HBV. The data set is described as follows: Determination of HBV DNA from the supernatants of HepAD38 cells (anti-HBV activity). The data set is classed as cell-based, hepatitis B virus. To be noted: Hepatitis B virus, HePAD38, 144 h, HBV DNA in HepAD38 supernatant, day 6, qPCR; read-out: Cell Activity. As for the experimental part: The anti-HBV activity was analysed in the stable transfected cell line HepAD38, which has been described to secrete high levels of HBV virion particles (Ladner et al., 1997). In brief, HepAD38 cells were cultured at 37° C. at 5% CO2 and 95% humidity in 200 μl maintenance medium, which was Dulbecco's modified Eagle's medium/Nutrient Mixture F-12 (Gibco, Karlsruhe), 10% fetal bovine serum (PAN Biotech Aidenbach) supplemented with 50 μg/ml penicillin/streptomycin (Gibco, Karlsruhe), 2 mM L-glutamine (PAN Biotech, Aidenbach), 400 μg/ml G418 (AppliChem, Darmstadt) and 0.3 μg/ml tetracycline. Cells were subcultured once a week in a 1:5 ratio, but were usually not passaged more than ten times. For the assay 60,000 cells were seeded in maintenance medium without any tetracycline into each well of a 96-well plate and treated with serial half-log dilutions of test compound. To minimize edge effects the outer 36 wells of the plate were not used but were filled with assay medium. On each assay plate six wells for the virus control (untreated HepAD38 cells) and six wells for the cell control (HepAD38 cells treated with 0.3 μg/ml tetracycline) were allocated, respectively. In addition, one plate set with reference inhibitors like BAY 41-4109, entecavir, and lamivudine instead of screening compounds were prepared in each experiment. In general, experiments were performed thrice in triplicates. At day 6 HBV DNA from 100 μl filtrated cell culture supernatant (AcroPrep Advance 96 Filter Plate, […] Supor membran, PALL GmbH, Dreieich) was automatically purified on the MagNa Pure LC instrument using the MagNA Pure 96 DNA and Viral NA Small Volume Kit (Roche Diagnostics, Mannheim) according to the instructions of the manufacturer. EC50 values were calculated from relative copy numbers of HBV DNA In brief, 5 μl of the 100 μl eluate containing HBV DNA were subjected to PCR LC480 Probes Master Kit (Roche) together with 1 μM antisense primer […], 0.5 μM sense primer […], 0.3 μM hybprobes […]-FL and LC640-[…]-PH (TIBMolBiol, Berlin) to a final volume of 12.5 μl. The PCR was performed on the Light Cycler 480 real time system (Roche Diagnostics, Mannheim) using the following protocol: Pre-incubation for 1 min at 95° C., amplification: 40 cycles×(10 sec at 95° C., 50 sec at 60° C., 1 sec at 70° C.), cooling for 10 sec at 40° C. Viral load was quantitated against known standards using HBV plasmid DNA of pCH-9/3091 (Nassal et al., 1990, Cell 63: 1357-1363) and the LightCycler 480 SW 1.5 software (Roche Diagnostics, Mannheim) and ECso values were calculated using non-linear regression with GraphPad Prism 6 (GraphPad Software Inc., La Jolla, USA).
Background: In qPCR the cycle at which signal appears reflects the starting amount.

A short description of data set [1]: Cell viability assay (AlamarBlue). To be noted: human, HepAD38 cells.
Data set [2] has as its target HBV core protein (C-terminal truncated core protein containing 149 amino acids of the N-terminal assembly domain) (UniProt P03146). As to the kind of experiment: Biochemical capsid assembly assay (fluorescence quenching). The arrangement: rows headed: Assembly Activity; other: BODIPY-FL labelled core protein, assembly started with NaCl, read after 6 min. To be noted: read-out: Assembly Activity; BODIPY-FL labelled core protein, assembly started with NaCl, read after 6 min. As for the experimental part: The screening for assembly effector activity was done based on a fluorescence quenching assay published by Zotnick et al. (2007). The C-terminal truncated core protein containing 149 amino acids of the N-terminal assembly domain fused to a unique cysteine residue at position 150 and was expressed in E. coli using the pET expression system (Merck Chemicals, Darmstadt). Purification of core dimer protein was performed using a sequence of size exclusion chromatography steps. In brief, the cell pellet from 1 L BL21 (DE3) Rosetta2 culture expressing the coding sequence of core protein cloned NdeI/XhoI into expression plasmid pET21b was treated for 1 h on ice with a native lysis buffer (Qproteome Bacterial Protein Prep Kit; Qiagen, Hilden). After a centrifugation step the supernatant was precipitated during 2 h stirring on ice with 0.23 g/ml of solid ammonium sulfate. Following further centrifugation the resulting pellet was resolved in buffer A (100 mM Tris, pH 7.5; 100 mM NaCl; 2 mM DTT) and was subsequently loaded onto a buffer A equilibrated CaptoCore 700 column (GE HealthCare, Frankfurt). The column flow through containing the assembled HBV capsid was dialyzed against buffer N (50 mM NaHCO3 pH 9.6; 5 mM DTT) before urea was added to a final concentration of 3M to dissociate the capsid into core dimers for 1.5 h on ice. The protein solution was then loaded onto a IL Sephacryl S300 column. After elution with buffer N core dimer containing fractions were identified by SDS-PAGE and subsequently pooled and dialyzed against 50 mM HEPES pH 7.5; 5 mM DTT. To improve the assembly capacity of the purified core dimers a second round of assembly and disassembly starting with the addition of 5 M NaCl and including the size exclusion chromatography steps described above was performed. From the last chromatography step core dimer containing fractions were pooled and stored in aliquots at concentrations between 1.5 to 2.0 mg/ml at −80° C.
Immediately before labelling the core protein was reduced by adding freshly prepared DTT in a final concentration of 20 mM. After 40 min incubation on ice storage buffer and DTT was removed using a Sephadex G-25 column (GE HealthCare, Frankfurt) and 50 mM HEPES, pH 7.5. For labelling 1.6 mg/ml core protein was incubated at 4° C. and darkness overnight with BODIPY-FL maleimide (Invitrogen, Karlsruhe) in a final concentration of 1 mM. After labelling the free dye was removed by an additional desalting step using a Sephadex G-25 column. Labelled core dimers were stored in aliquots at 4° C. In the dimeric state the fluorescence signal of the labelled core protein is high and is quenched during the assembly of the core dimers to high molecular capsid structures. The screening assay was performed in black 384 well microtiter plates in a total assay volume of 10 μl using 50 mM HEPES pH 7.5 and 1.0 to 2.0 μM labelled core protein. Each screening compound was added in 8 different concentrations using a 0.5 log-unit serial dilution starting at a final concentration of 100 μM, 31.6 μM or 10 μM, In any case the DMSO concentration over the entire microtiter plate was 0.5%. The assembly reaction was started by the injection of NaCl to a final concentration of […] which induces the assembly process to approximately 25% of the maximal quenched signal. 6 min after starting the reaction the fluorescence signal was measured using a Clariostar plate reader (BMG Labtech, Ortenberg) with an excitation of 477 nm and an emission of 525 nm. As 100% and 0% assembly control HEPES buffer containing 2.5 M and 0 M NaCl was used. Experiments were performed thrice in triplicates. EC50 values were calculated by non-linear regression analysis using the Graph Pad Prism 6 software (GraphPad Software, La Jolla, USA).

A value given as a limit tells only on which side of the number the result lay.

HBV core protein (C-terminal truncated core protein containing 149 amino acids of the N-terminal assembly domain), sequence (P03146 whole entry, the tested form may be a part): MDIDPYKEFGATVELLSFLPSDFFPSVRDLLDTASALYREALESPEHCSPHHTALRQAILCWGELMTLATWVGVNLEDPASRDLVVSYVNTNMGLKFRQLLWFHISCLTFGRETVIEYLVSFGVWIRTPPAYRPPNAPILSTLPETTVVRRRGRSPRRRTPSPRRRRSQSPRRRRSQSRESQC

The CC50 is the concentration at which the toxic effect on the cells reaches its halfway point. Read a low CC50 as harm at low concentration. Regarding `CN(C(=O)c1cnn2c1CN(C(=O)c1cc3cc(F)c(Cl)cc3[nH]1)CC2)C1(COC(F)F)CC1` [Example 23, 5-(6-chloro-5-fluoro-1H-indole-2-carbonyl)-N-{1-[(difluoromethoxy)methyl]cyclopropyl}-N-methyl-4H,5H,6H,7H-pyrazolo[1,5-a]pyrazine-3-carboxamide], the EC50 in the data set with HBV is below 1 µM. This molecule displayed a half-maximal cytotoxic concentration (CC50) at 6 days in data set [1] above 10 µM. The IC50 in data set [2] was below 5 µM.

Take `CN(C(=O)c1cnn2c1CN(C(=O)c1cc3c(F)ccc(F)c3[nH]1)CC2)C1(COC(F)F)CC1` [Example 24, 5-(4,7-difluoro-1H-indole-2-carbonyl)-N-{1-[(difluoromethoxy)methyl]cyclopropyl}-N-methyl-4H,5H,6H,7H-pyrazolo[1,5-a]pyrazine-3-carboxamide]: the EC50 in the data set with HBV is below 1 µM. The CC50 at 6 days in data set [1] is above 10 µM. The IC50 in data set [2] was below 5 µM.

For the molecule `CN(C(=O)c1cnn2c1CN(C(=O)c1cc3c(Cl)cc(F)cc3[nH]1)CC2)C1(COC(F)F)CC1` [Example 25, 5-(4-chloro-6-fluoro-1H-indole-2-carbonyl)-N-{1-[(difluoromethoxy)methyl]cyclopropyl}-N-methyl-4H,5H,6H,7H-pyrazolo[1,5-a]pyrazine-3-carboxamide], in the data set with HBV, the EC50 was below 1 µM. This molecule also had a CC50 at 6 days in data set [1] above 10 µM. In addition, in data set [2], the IC50 is below 5 µM.

`NS(=O)(=O)c1cnn2c1CN(C(=O)c1cc3ccccc3[nH]1)CC2` [Example 26, 5-(1H-indole-2-carbonyl)-4H,5H,6H,7H-pyrazolo[1,5-a]pyrazine-3-sulfonamide]: the EC50 with HBV was below 1 µM. Also, the CC50 at 6 days in data set [1] is above 10 µM. In addition, the IC50 in data set [2] was below 5 µM.

For the molecule `O=C(c1cc2ccccc2[nH]1)N1CCn2ncc(S(=O)(=O)NCC3(O)CCC3)c2C1` [Example 27, N-[(1-hydroxycyclobutyl)methyl]-5-(1H-indole-2-carbonyl)-4H,5H,6H,7H-pyrazolo[1,5-a]pyrazine-3-sulfonamide], the EC50 in the data set with HBV fell in the range of 1 to 10 µM. The same molecule yielded a CC50 at 6 days in data set [1] above 10 µM. Further, the IC50 in data set [2] was 5 to 10 µM.

On to `CC(NS(=O)(=O)c1cnn2c1CN(C(=O)c1cc3ccccc3[nH]1)CC2)C(F)(F)F` (stereo not drawn) [Example 28, 5-(1H-indole-2-carbonyl)-N-(1,1,1-trifluoropropan-2-yl)-4H,5H,6H,7H-pyrazolo[1,5-a]pyrazine-3-sulfonamide], for which, in the data set with HBV, the EC50 lay within 1 to 10 µM. In data set [1], the CC50 at 6 days is above 10 µM. The IC50 in data set [2] is below 5 µM.

On to `O=C(c1cc2ccccc2[nH]1)N1CCn2ncc(S(=O)(=O)NCCO)c2C1` [Example 29, N-(2-hydroxyethyl)-5-(1H-indole-2-carbonyl)-4H,5H,6H,7H-pyrazolo[1,5-a]pyrazine-3-sulfonamide], for which the EC50 with HBV is below 1 µM. In data set [1], this molecule displayed a half-maximal cytotoxic concentration (CC50) at 6 days above 10 µM. Besides, in data set [2], the IC50 was below 5 µM.

For `O=C(c1cc2ccccc2[nH]1)N1CCn2ncc(S(=O)(=O)NC3CCOC3)c2C1` (stereo not drawn) [Example 30, 5-(1H-indole-2-carbonyl)-N-(oxolan-3-yl)-4H,5H,6H,7H-pyrazolo[1,5-a]pyrazine-3-sulfonamide], the EC50 in the data set on HBV is below 1 µM. Further, the CC50 at 6 days in data set [1] was above 10 µM. For the same molecule, in data set [2], the IC50 is below 5 µM.

As to `CN(CCO)S(=O)(=O)c1cnn2c1CN(C(=O)c1cc3ccccc3[nH]1)CC2` [Example 31, N-(2-hydroxyethyl)-5-(1H-indole-2-carbonyl)-N-methyl-4H,5H,6H,7H-pyrazolo[1,5-a]pyrazine-3-sulfonamide], the EC50 in the data set with HBV is below 1 µM. In data set [1], this molecule showed a CC50 at 6 days above 10 µM. In data set [2], the IC50 was below 5 µM.

On to `COCC1(N(C)S(=O)(=O)c2cnn3c2CN(C(=O)c2cc4ccccc4[nH]2)CC3)CC1` [Example 32, 5-(1H-indole-2-carbonyl)-N-[1-(methoxymethyl)cyclopropyl]-N-methyl-4H,5H,6H,7H-pyrazolo[1,5-a]pyrazine-3-sulfonamide], for which the EC50 in the data set with HBV was below 1 µM. In addition, the CC50 at 6 days in data set [1] was above 10 µM. In addition, the IC50 in data set [2] is below 5 µM.

For the molecule `O=C(c1cc2ccccc2[nH]1)N1CCn2ncc(S(=O)(=O)NCC3CCOC3)c2C1` (stereo not drawn) [Example 33, 5-(1H-indole-2-carbonyl)-N-[(oxolan-3-yl)methyl]-4H,5H,6H,7H-pyrazolo[1,5-a]pyrazine-3-sulfonamide], the EC50 in the data set with HBV was 1 to 10 µM. The cytotoxic concentration (CC50) at 6 days in data set [1] is above 10 µM. Further, the IC50 in data set [2] fell in the range of 5 to 10 µM.

As to `O=C(c1cc2ccccc2[nH]1)N1CCn2ncc(S(=O)(=O)N3CCC(O)CC3)c2C1` [Example 35, 1-{[5-(1H-indole-2-carbonyl)-4H,5H,6H,7H-pyrazolo[1,5-a]pyrazin-3-yl]sulfonyl}piperidin-4-ol], the EC50 with HBV is below 1 µM. This molecule also displayed a CC50 at 6 days in data set [1] above 10 µM. In addition, the IC50 in data set [2] is below 5 µM.

As to `CN1CCN(S(=O)(=O)c2cnn3c2CN(C(=O)c2cc4ccccc4[nH]2)CC3)CC1` [Example 36, 2-{3-[(4-methylpiperazin-1-yl)sulfonyl]-4H,5H,6H,7H-pyrazolo[1,5-a]pyrazine-5-carbonyl}-1H-indole], in the data set with HBV, the EC50 was below 1 µM. In data set [1], this molecule showed a CC50 at 6 days above 10 µM. Besides, in data set [2], the IC50 lay within 5 to 10 µM.

For the molecule `CC(C)NS(=O)(=O)c1cnn2c1CN(C(=O)c1cc3ccccc3[nH]1)CC2` [Example 37, 5-(1H-indole-2-carbonyl)-N-(propan-2-yl)-4H,5H,6H,7H-pyrazolo[1,5-a]pyrazine-3-sulfonamide], the EC50 in the data set on HBV is below 1 µM. In addition, the CC50 at 6 days in data set [1] is above 10 µM. Moreover, in data set [2], the IC50 is below 5 µM.
